Activity calls are given as the source filed them. The calls are words filed in the database; no cut-off is given here.
Experiments:
Mus musculus [1] = test: Anti-diabesity activity in DIO C57BL/6 mouse assessed as decrease in fasted blood glucose level at 100 nmol/kg, sc administered once daily for 7 days; assay type: functional, organism-based; conditions: time 7.0 day
[2] = biological target: T1, CCK2R (gastrin/cholecystokinin type B receptor) (Homo sapiens, UniProt P32239); test: Agonist activity at human CCK2R expressed in HEK293 cells assessed as ERK1/2 phosphorylation incubated for 5 mins by AlphaScreen assay; assay type: functional, cell-based; conditions: human, HEK293 cells expressing human CCK2R
T1 sequence (P32239 whole entry): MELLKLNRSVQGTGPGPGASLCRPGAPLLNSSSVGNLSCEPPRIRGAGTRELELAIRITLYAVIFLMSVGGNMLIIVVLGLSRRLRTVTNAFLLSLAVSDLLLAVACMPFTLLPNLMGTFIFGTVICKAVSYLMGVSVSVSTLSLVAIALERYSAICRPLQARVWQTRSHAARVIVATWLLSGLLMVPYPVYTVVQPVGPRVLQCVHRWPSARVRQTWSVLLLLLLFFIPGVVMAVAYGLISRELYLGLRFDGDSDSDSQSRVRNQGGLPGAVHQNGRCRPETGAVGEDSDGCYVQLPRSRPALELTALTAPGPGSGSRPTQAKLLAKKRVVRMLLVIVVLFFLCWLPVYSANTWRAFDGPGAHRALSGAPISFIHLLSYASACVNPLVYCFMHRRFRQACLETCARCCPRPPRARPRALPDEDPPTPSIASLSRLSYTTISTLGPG

[3] = Cmax in Sprague-Dawley rat at 25 nmol/kg, iv by LC-MS/MS analysis; assay type: ADME, organism-based; set-up: dose 25 nmol/kg, route iv; conditions: in vivo
[4] = AUC (0 to infinity) in Sprague-Dawley rat at 25 nmol/kg, sc by LC-MS/MS analysis; assay type: ADME, organism-based; set-up: time infinity, dose 25 nmol/kg, route sc; conditions: in vivo
Mus musculus [5] = test: Anorectic activity in ICR mouse assessed as decrease in food intake at 25 nmol/kg, ip and measured after 9 hrs; assay type: functional, organism-based
Mus musculus [6] = test: Anti-diabesity activity in DIO C57BL/6 mouse assessed as reduction in body weight at 10 nmol/kg, sc administered every 2 days for 10 days; assay type: functional; conditions: C57BL/6, 240 h, time 10 day
Mus musculus [7] = test: Anti-diabesity activity in db/db mouse assessed as decrease in fasted blood glucose level at 100 nmol/kg, sc administered once daily for 7 days; assay type: functional, organism-based; conditions: time 7.0 day
[8] = Hepatotoxicity in DIO C57BL/6 mouse assessed as aspartate aminotransferase level in plasma at 100 nmol/kg, sc administered once daily for 7 days; assay type: toxicity, organism-based; conditions: in vivo, 168 h, time 7 day
[9] = Hepatotoxicity in DIO C57BL/6 mouse assessed as alanine aminotransferase level in plasma at 100 nmol/kg, sc administered once daily for 7 days; assay type: toxicity, organism-based; conditions: in vivo, 168 h, time 7 day
Mus musculus [10] = test: Anti-diabesity activity against DIO C57BL/6 mouse assessed as reduction in cumulative food intake at 25 nmol/kg, sc administered every 2 days for 3 weeks; assay type: functional, organism-based; conditions: time 21.0 day
Mus musculus [11] = test: Anti-diabesity activity against DIO C57BL/6 mouse assessed as reduction in fasted blood glucose level at 25 nmol/kg, sc administered every 2 days for 3 weeks; assay type: functional, organism-based; conditions: time 21.0 day
Mus musculus [12] = test: Anti-diabesity activity against DIO C57BL/6 mouse assessed as improvement in glucose tolerance at 25 nmol/kg, sc administered every 2 days for 3 weeks by OGTT; assay type: functional, organism-based; conditions: time 21.0 day
Mus musculus [13] = test: Anti-diabesity activity against DIO C57BL/6 mouse assessed as increase in adiponectin level in plasma at 25 nmol/kg, sc administered every 2 days for 3 weeks by ELISA; assay type: functional, organism-based; conditions: time 21.0 day
Mus musculus [14] = test: Anti-diabesity activity against DIO C57BL/6 mouse assessed as reduction in triglycerides level in serum at 25 nmol/kg, sc administered every 2 days for 3 weeks; assay type: functional, organism-based; conditions: time 21.0 day
Mus musculus [15] = test: Anti-diabesity activity against db/db mouse assessed as reduction in body weight at 25 nmol/kg, sc administered every 2 days for 3 weeks; assay type: functional, organism-based; conditions: time 21.0 day
Mus musculus [16] = test: Anti-diabesity activity against db/db mouse assessed as reduction in fasted blood glucose level at 25 nmol/kg, sc administered every 2 days for 3 weeks; assay type: functional, organism-based; conditions: time 21.0 day
Mus musculus [17] = test: Anti-diabesity activity against db/db mouse assessed as increase in islet area at 25 nmol/kg, sc administered every 2 days for 3 weeks by H and E staining based analysis; assay type: functional, organism-based; conditions: time 21.0 day
Mus musculus [18] = test: Anti-diabesity activity against db/db mouse assessed as increase in islet number at 25 nmol/kg, sc administered every 2 days for 3 weeks by H and E staining based analysis; assay type: functional, organism-based; conditions: time 21.0 day
Mus musculus [19] = test: Anti-diabesity activity in db/db mouse assessed as improvement in glucose tolerance at 25 nmol/kg, ip pretreated for 15 mins with CCK-1R antagonist, Lorglumide followed by compound administration and 15 mins later treated with oral glucose and measured upto 120 mins by OGTT; assay type: functional, organism-based; conditions: time 135.0 min
[20] = Hepatotoxicity in db/db mouse assessed as alanine aminotransferase level in plasma at 100 nmol/kg, sc administered once daily for 7 days; assay type: toxicity, organism-based; conditions: in vivo, 168 h, time 7 day
[21] = Pancreatic insult activity in db/db mouse assessed as increase in lipase level in plasma at 100 nmol/kg, sc administered once daily for 7 days; assay type: toxicity, organism-based; conditions: in vivo, 168 h, time 7 day
[22] = Pancreatic insult activity in db/db mouse assessed as increase in amylase level in plasma at 100 nmol/kg, sc administered once daily for 7 days; assay type: toxicity, organism-based; conditions: in vivo, 168 h, time 7 day
Rattus norvegicus = test: Anorectic activity in Sprague-Dawley rat assessed as reduction in food intake at 25 nmol/kg,ip measured after 24 hrs; assay type: functional
[23] = Renal toxicity in DIO C57BL/6 mouse assessed as blood urea nitrogen level at 25 nmol/kg, sc administered every 2 days for 3 weeks; assay type: organism-based; conditions: in vivo, 504 h, time 21 day
[24] = Hepatotoxicity in DIO C57BL/6 mouse assessed as aspartate aminotransferase level in serum at 25 nmol/kg, sc administered every 2 days for 3 weeks; assay type: toxicity, organism-based; conditions: in vivo, 504 h, time 21 day
[25] = Pancreatic insult activity in DIO C57BL/6 mouse assessed as lipase level in serum at 25 nmol/kg, sc administered every 2 days for 3 weeks; assay type: toxicity, organism-based; conditions: in vivo, 504 h, time 21 day
Mus musculus [26] = test: Anti-diabesity activity against db/db mouse assessed as reduction in HbA1c level at 25 nmol/kg, sc administered every 2 days for 12 weeks; assay type: functional, organism-based
Mus musculus [27] = test: Anti-diabesity activity against db/db mouse assessed as improvement in glucose tolerance level at 25 nmol/kg, sc administered every 2 days for 6 weeks followed by saline treatment for 6 weeks and measured during first 6 weeks by OGTT; assay type: functional, organism-based
Mus musculus [28] = test: Anti-diabesity activity against db/db mouse assessed as reduction in fasting blood glucose level at 25 nmol/kg, sc administered every 2 days for 6 weeks followed by saline treatment for 6 weeks and measured during first 6 weeks; assay type: functional, organism-based
Mus musculus [29] = test: Anti-diabesity activity against db/db mouse assessed as improvement in glucose tolerance level at 25 nmol/kg, sc administered every 2 days for 6 weeks followed by saline treatment for 6 weeks and measured during second 6 weeks by OGTT; assay type: functional, organism-based
Mus musculus [30] = test: Anti-diabesity activity against db/db mouse assessed as reduction in HbA1c level at 25 nmol/kg, sc administered every 2 days for 6 weeks followed by saline treatment for 6 weeks and measured during second 6 weeks; assay type: functional, organism-based
Mus musculus [31] = test: Anti-diabesity activity against db/db mouse assessed as increase in pancreas mass at 25 nmol/kg, sc administered every 2 days for 12 weeks; assay type: functional, organism-based
[32] = Pancreatic insult activity in db/db mouse assessed as increase in amylase level in serum at 25 nmol/kg, sc administered every 2 days for 12 weeks; assay type: toxicity, organism-based; conditions: in vivo, 2016 h

Row | SMILES | Activity (Mus musculus [1]) | EC50 at 5 min [2] | Cmax [3] | AUC(0-inf) [4] | Activity (Mus musculus [5]) | inhibition in vivo at 0.01 µmol/kg (Mus musculus [6]) | Activity (Mus musculus [7]) | Activity [8] | Activity [9] | Activity (Mus musculus [10]) | Activity (Mus musculus [11]) | Activity (Mus musculus [12]) | Activity (Mus musculus [13]) | Activity (Mus musculus [14]) | Activity (Mus musculus [15]) | Activity (Mus musculus [16]) | Activity (Mus musculus [17]) | Activity (Mus musculus [18]) | Activity (Mus musculus [19]) | Activity [20] | also measured
1 | CCCC[C@H](NC(=O)[C@H](Cc1ccc(CS(=O)(=O)O)cc1)NC(=O)[C@H](CC(=O)O)NC(=O)COCCOCCNC(=O)COCCOCCNC(=O)[C@H](CCCNC(=N)N)NC(=O)CNC(=O)[C@H](CCCCN)NC(=O)[C@@H](NC(=O)[C@H](CC(C)C)NC(=O)[C@H](Cc1c[nH]c2ccccc12)NC(=O)[C@H](C)NC(=O)[C@@H](NC(=O)[C@H](Cc1ccccc1)NC(=O)[C@H](CCC(=O)O)NC(=O)[C@H](CCCCNC(=O)COCCOCCNC(=O)COCCOCCNC(=O)CC[C@H](NC(=O)CCCCCCCCCCCCCCCCC(=O)O)C(=O)O)NC(=O)[C@H](C)NC(=O)[C@H](C)NC(=O)[C@H](CCC(N)=O)NC(=O)CNC(=O)[C@H](CCC(=O)O)NC(=O)[C@H](CC(C)C)NC(=O)[C@H](Cc1ccc(O)cc1)NC(=O)[C@H](CO)NC(=O)[C@H](CO)NC(=O)[C@@H](NC(=O)[C@H](CC(=O)O)NC(=O)[C@H](CO)NC(=O)[C@@H](NC(=O)[C@H](Cc1ccccc1)NC(=O)[C@@H](NC(=O)CNC(=O)[C@H](CCC(=O)O)NC(=O)[C@H](C)NC(=O)[C@@H](N)Cc1cnc[nH]1)[C@@H](C)O)[C@@H](C)O)C(C)C)[C@@H](C)CC)C(C)C)C(=O)NCC(=O)N[C@@H](Cc1c[nH]c2ccccc12)C(=O)N[C@@H](CCCC)C(=O)N(C)[C@H](CC(=O)O)C(=O)N(C)[C@@H](Cc1ccccc1)C(N)=O | Active | > 100 nM | 1680 ng/mL | 5510 ng·h/mL | Active | 14.5% | Active | Non-Toxic | Non-Toxic | Active | Active | Active | Active | Active | Active | Active | Active | Active | Active | Non-Toxic | Activity [21]: Non-Toxic; Activity [22]: Non-Toxic; inhibition in vivo at 0.025 µmol/kg (Rattus norvegicus): 28%; Activity [23]: Non-Toxic; Activity [24]: Non-Toxic; Activity [25]: Non-Toxic; Activity (Mus musculus [26]): Active; Activity (Mus musculus [27]): Active; Activity (Mus musculus [28]): Active; Activity (Mus musculus [29]): Active; Activity (Mus musculus [30]): Active; Activity (Mus musculus [31]): Active; Activity [32]: Toxic
2 | CCCC[C@H](NC(=O)[C@H](Cc1ccc(CS(=O)(=O)O)cc1)NC(=O)[C@H](CC(=O)O)NC(=O)COCCOCCNC(=O)COCCOCCNC(=O)[C@H](CCCCN)NC(=O)CNC(=O)[C@H](CCCCN)NC(=O)[C@@H](NC(=O)[C@H](CC(C)C)NC(=O)[C@H](Cc1c[nH]c2ccccc12)NC(=O)[C@H](CCC(=O)O)NC(=O)[C@@H](NC(=O)[C@H](Cc1ccccc1)NC(=O)[C@H](CCC(=O)O)NC(=O)[C@H](CCCCNC(=O)COCCOCCNC(=O)COCCOCCNC(=O)CC[C@H](NC(=O)CCCCCCCCCCCCCCCCC(=O)O)C(=O)O)NC(=O)[C@H](C)NC(=O)[C@H](C)NC(=O)[C@H](CCC(=O)O)NC(=O)[C@H](CCC(=O)O)NC(=O)[C@H](CCC(=O)O)NC(=O)[C@H](CC(C)C)NC(=O)[C@@H](NC(=O)[C@H](CCC(=O)O)NC(=O)[C@@H](NC(=O)[C@@H](NC(=O)[C@H](CC(=O)O)NC(=O)[C@H](CC(N)=O)NC(=O)[C@@H](NC(=O)[C@H](Cc1ccc(O)cc1)NC(=O)[C@@H](NC(=O)CNC(=O)[C@H](CCC(=O)O)NC(=O)C(C)(C)NC(=O)[C@@H](N)Cc1cnc[nH]1)[C@@H](C)O)[C@@H](C)O)C(C)C)[C@@H](C)O)[C@@H](C)O)[C@@H](C)CC)[C@@H](C)CC)C(=O)NCC(=O)N[C@@H](Cc1c[nH]c2ccccc12)C(=O)N[C@@H](CCCC)C(=O)N(C)[C@H](CC(=O)O)C(=O)N(C)[C@@H](Cc1ccccc1)C(N)=O | Active | > 100 nM | 1660 ng/mL | 15200 ng·h/mL | Active | 16.2% | Active | Non-Toxic | Non-Toxic | Active | Active | Active | Active | Active | Active | Active | Active | Active | Active | Non-Toxic | Activity [21]: Non-Toxic; Activity [22]: Non-Toxic; inhibition in vivo at 0.025 µmol/kg (Rattus norvegicus): 33%; Activity [23]: Non-Toxic; Activity [24]: Non-Toxic; Activity [25]: Non-Toxic; Activity (Mus musculus [26]): Active; Activity (Mus musculus [27]): Active; Activity (Mus musculus [28]): Active; Activity (Mus musculus [29]): Active; Activity (Mus musculus [30]): Active; Activity (Mus musculus [31]): Active; Activity [32]: Toxic
